# Assay results as given in paper PMC10859961, “Ir(III) Half-Sandwich Photosensitizers with a π-Expansive Ligand for Efficient Anticancer Photodynamic Therapy” (Journal of Medicinal Chemistry, 2024).
# Read-outs that look alike come from different tables or passages of the source.
# What was measured:
# A549 cancer cells = assay: MTT cell viability assay, dark or photoactivated; assay type: cell-based, human; conditions: A549, MTT; for IC50: 4 h incubation
# Experimental: Cells were cultured in 96-well plates at a density of 3000 (A549), 2500 (HeLa), or 5000 (PC-3, 1BR.3.G, and MRC-5) cells per well in cell culture medium and allowed to attach for 24 h. Solutions of the complexes at different concentrations were prepared for cell treatments. In all cases, the solid compounds were weighed using an analytical balance (Mettler Toledo AX205DR) to ensure precise measurements. Subsequently, 5 mM solutions were prepared using DMSO. Solutions were then diluted in water to reach a concentration of 1 mM and then, aliquots were taken and diluted in culture medium to obtain solutions ranging from 0 to 50 μM. […] The cells were treated with these solutions in dark conditions or following the photoactivation protocol (see below). 48 h later the treatments were removed, and cells were washed with phosphate-buffered saline (PBS).
# Initially, the effect of the complexes on the cell viability was determined by the 3-(4,5-dimethylthiazol-2-yl)-2,5-diphenyltetrazolium bromide (MTT) assay.[147] The cells were incubated for 2 h with 100 μL of culture medium together with 10 μL of MTT (Sigma-Aldrich) at 0.5 mg/mL. After discarding the medium, DMSO was added to each well to dissolve the purple formazan crystals. The absorbance of each well was determined on a Multiscan Plate Reader (Synergy 4, Biotek, Winooski) at a wavelength of 570 nm. Cell viability was also assessed using the CyQUANT Direct Cell Proliferation Assay (Thermo Fisher Scientific), following the manufacturer’s instructions. Briefly, after the treatments, the cells were washed with PBS, and an equal volume of culture medium and CyQUANT mix was added to each well. The plates were then incubated for 1 h at 37 °C. Subsequently, the fluorescence intensity was bottom read using a Multiscan Plate Reader (Synergy 4, Biotek, Winooski) with excitation and emission filters of 485 and 528 nm, respectively. In both assays, at least three replicates were measured for each treatment. The concentration that reduces the cell viability by 50% (IC50) was established using the Gen5 software (BioTek). Three independent experiments were carried out for each compound. […] The phototoxicity index (PI = IC50,dark/IC50,light) was determined.
# To assess the photodynamic activity of the complexes, cells were incubated with the complexes for 4 h to enable their intracellular accumulation. The cells were then irradiated with light with a wavelength of 460 nm (blue), 530 nm (green), or 655 nm (red) for 1 h using a LED system (LuxLight) with an effective power of 6.7 mW cm^–2, which provides a total light dose of 24.1 J cm^–2. The LED system was positioned at 25 mm from the cell culture plates.
# [1] = Photocatalytic NADH oxidation (UV-vis); assay type: biochemical; set-up: key: TON = ΔNADH concentration after 1 h / photocatalyst concentration; conditions: first hour, complex 2.5 μM, NADH 100 μM
# Experimental: Fresh stock solutions of the complexes at 7.50 μM in H2O/MeOH mixture (97.5/2.5, v/v) and NADH at 300 μM in H2O/MeOH mixture (97.5/2.5, v/v) were prepared. In a quartz cell, 1 mL of complex solution, 1 mL of NADH solution, and 1 mL of solvent mixture were mixed to prepare a final solution with 2.50 μM complex and 100 μM NADH (complex/NADH rate = 1/40). The solutions were studied by recording UV–vis absorption spectra in dark conditions and under blue light irradiation (λexc = 470 nm, “Medusa” photoreactor) at ambient temperature and various time intervals for 8 h. In addition, a solution of NADH at 100 μM was studied under blue light irradiation to confirm its photostability. The photocatalytic rate of the photosensitizers was evaluated by monitoring its absorbance decrease at 340 nm, which correspond to NADH oxidation.
# The turnover numbers (TONs) of complexes were calculated by measuring the absorption difference at 340 nm after 1 h of reaction. TON was calculated from the difference in NADH concentration after 1 h divided by the concentration of photocatalyst (eq 5), where b is the optical path length (1 cm). The concentration of NADH was obtained using the extinction coefficient ε340 = 5751 M^–1 cm^–1.[40],[148] [drawing 26] 5
# [2] = 1O2 quantum yield determination with DPBF; conditions: acetonitrile; 470 nm blue light
# Experimental: It was performed for complexes 1–8 in acetonitrile according to a relative procedure adapted from the literature[132]−[134] based on monitoring the oxidation of 1,3-diphenylisobenzofuran (DPBF, yellow) to 1,2-dibenzoylbenzene (colorless) photosensitized by the Ir(III) complexes. DPBF was used as an ^1O2 scavenger due to its fast reaction with this molecule. Fresh stock air-equilibrated solutions of photosensitizers (6.00 × 10^–6 M) and DPBF (1.50 × 10^–4 M) in acetonitrile were prepared. In a quartz cell, 1 mL of DPBF solution, 0.5 mL of complex solution, and 1.5 mL of acetonitrile were mixed to prepare a final solution with 5.00 × 10^–5 M DPBF and 1.00 × 10^–6 M complex. The final solutions were studied by recording UV–vis absorption spectra at room temperature in dark conditions (over a period of 6 min with time intervals of 2 min), under blue light irradiation (λexc = 470 nm, “Medusa” photoreactor) and under green light irradiation (λexc = 530 nm, “Medusa” photoreactor) for 5 s irradiation intervals during a total exposure period of 20 s. Absorption UV–vis spectra were recorded after every irradiation interval.
# The consumption of DPBF probe was measured by monitoring its absorbance intensity decrease at 410 nm with irradiation time. ^1O2 generation quantum yield (ϕΔ) was calculated from eq 1 using Rose Bengal or [Ru(bpy)3]^2+ as reference for complexes with pbpz and pbpn ligands, respectively: [drawing 22] 1 where s and ref subscripts correspond to the complex and the reference, ϕΔ is the ^1O2 generation quantum yield (0.53 for Rose Bengal[135] and 0.56 for [Ru(bpy)3]Cl2[132] in degassed acetonitrile), S is the slope of the plots of the −ln(normalized absorbance) of DPBF at 410 nm vs the irradiation time, and F is the correction factor of absorption, which is given by F = 1–10^–O.D. (where O.D. is the optical density at 470 nm of solutions of complexes and references). The reproducibility of the results was confirmed by performing each experiment three times.
# The stability of DPBF probe was studied in dark conditions and under light irradiation. In dark conditions and under green light irradiation the probe remains unaltered. However, under blue light irradiation, a photobleaching of DPBF was observed. Probe consumption was approximately 6.5% every 5 s. Therefore, a working interval of 20 s was chosen, where 75% of the probe remains stable. To calculate the ϕΔ, a correction factor was applied to the absorbance at 410 nm: a 6.5% of the previous value was added to each absorbance to counteract self-consumption of the probe (i.e., to the absorbance at 10 s, a 6.5% of the absorbance at 5 s was added).
# calf thymus DNA (CT-DNA) = assay: Competitive EtBr displacement assay; assay type: binding; conditions: CT-DNA saturated with EtBr; 1 h, room temperature; read-out: C50 (50% reduction of EtBr fluorescence)
# Experimental: To investigate the capacity of the complexes to intercalate into DNA, the competitive ethidium displacement assay was carried out as previously described[149] with minor modifications. Stock solutions of 20 μM calf thymus DNA (CT-DNA) and 25 μM Ethidium bromide (EtBr) were prepared in saline TE (50 mM NaCl, 10 mM tris(hydroxymethyl) aminomethane–HCl, 0.1 mM ethylenediaminetetracetic acid (EDTA), pH 7.4). Serial dilutions of metal complexes were prepared at concentrations ranging from 20 to 400 μM from a 1 mM stock solution containing 20% DMSO. The assay was carried out by mixing 25 μL of CT-DNA and 25 μL of EtBr with 50 μL of each compound dilution, on a black 96-well plate. The plate was incubated at room temperature for 1 h and the fluorescence was measured on a Synergy 4 microplate reader (Biotek, Winooski), with excitation wavelength set to 500 nm, and emission wavelength set to 530–800 nm. The fluorescence emission at 590 nm was used to measure the C50, corresponding to the concentration of compound required to induce a 50% decrease in the fluorescence of the EtBr. Experiments were performed in triplicate.
# A549 cells [3] = assay: Cell death mechanism (Annexin V-FITC / propidium iodide); assay type: cell-based, human; conditions: positive control 50 μM for 24 h
# Experimental: The cell death mechanism was analyzed with the Vybrant Apoptosis Assay Kit (Molecular Probes). A549 cells seeded in 12-well plates at a density of 1 × 10^5 cells per well were treated with complex 6 at the corresponding IC50,light × 5 under photoactivation conditions. Cisplatin at 50 μM was used as positive control. 4 and 20 h after the irradiation, cells were collected by trypsinization and immediately stained with Annexin V-FITC and propidium iodide according to the manufacturer’s instructions. The median fluorescence of 10,000 cells of each sample was analyzed by flow cytometry. Annexin-FITC staining was detected at a wavelength of 520 nm (FL1) and propidium iodide was detected at 617 nm (FL2).
# [4] = system: porcine red blood cells (RBC); assay: Hemolytic activity (hemoglobin release); assay type: cell-based; conditions: dark, 1 hour
# Experimental: The hemolytic activities of the complexes were determined by measuring hemoglobin release from porcine red blood cells (RBC). First, fresh porcine blood commercially obtained was diluted to 5% v/v in PBS solution and washed three times with PBS by centrifugation at 1000 rcf for 10 min. Then, RBC suspension (150 μL) was mixed with 150 μL of each complex at concentrations ranging from 1 to 50 μM. A solution of 0.2% Triton X-100 in PBS was used as positive control to induce complete hemolysis. PBS alone was used as negative control. Samples were incubated at 37 °C for 1 h in an orbital shaker (50 rpm) and then centrifuged at 3500 rcf for 10 min. 80 μL aliquots of the supernatant were transferred to a 96-well plate and diluted with 80 μL of Milli-Q water. Hemolysis was evaluated by measuring the absorbance of the samples at 540 nm with a Synergy 4 plate reader (BioTek, Winooski). The percentage of hemolysis (H) was calculated using eq 4: [drawing 25] 4 where As is the absorbance for a given sample, An is the absorbance for the negative control, and Ap is the absorbance for the positive control. Each sample was tested in triplicate.
# A549 cells [5] = assay: Mitochondrial membrane potential (JC-1, flow cytometry); assay type: cell-based, human; conditions: positive control, 5 μM, 30 min
# Experimental: A549 cells were seeded onto 24-well plates. 24 h later, cells were incubated for 4 h with complexes 2, 4, 6, and 8 at 10 nM and then photoactivated or kept in the dark for an additional hour. Next, the cells were washed with PBS and harvested by trypsinization. Mitochondrial membrane potential changes were immediately measured by the JC-1 (5,5′,6,6′-tetrachloro-1,1′,3,3′-tetraethylbenzimidazolocarbo-cyanine iodide) Mitochondrial Membrane Potential Detection Kit (Biotium), according to the manufacturer’s instructions. As positive control, the cells were coincubated with CCCP (Sigma) at 5 μM for 30 min to disrupt the mitochondrial membrane potential. For each treatment, the fluorescence of 1 × 10^4 cells was analyzed by a Novocyte flow cytometer. JC-1 red aggregates were detected at a wavelength of 590 nm (FL2) and JC-1 green monomers at 529 nm (FL1).
# CT26 = system: CT26; set-up: method as in p (Pozza et al., Inorg. Chem. 2023); conditions: 540 nm, dose 9 J cm‐2, ref p (Pozza et al., Inorg. Chem. 2023); cited from earlier work
# [6] = blue light 460 nm 1 h (24.1 J cm^–2), 48 h, read-out: IC50 blue light
# [7] = kept in the dark, viability after 48 h, read-out: IC50 dark
compound,measurement,setting,value
"Cc1c(C)c(C)[c-](C)c1C.F[B-](F)(F)F.c1ccc2nc3c4ccc[n+]5c4c4[c](cccc4c3nc2c1)[Ir]5[n+]1cc[nH]c1 [complex 3, [(η^5-C5Me5)Ir(Im)(pbpz)]BF4]",IC50,A549 cancer cells; [6],1.2 ± 0.1 µM
same,IC50,"A549 cancer cells; green light 530 nm 1 h (24.1 J cm^–2), 48 h, read-out: IC50 green light",2.5 ± 0.3 µM
same,IC50,A549 cancer cells; [7],4.9 ± 0.7 µM
same,"PI green light (IC50,dark/IC50,light)","A549 cancer cells; green light 530 nm, 24.1 J cm^–2",2.0
same,TON1h (NADH oxidation),[1]; 470 nm blue light,2.28
same,TON1h (NADH oxidation),[1]; dark,0.47
same,"1O2 generation quantum yield (ϕΔ), DPBF",[2],0.0399
same,IC50,calf thymus DNA (CT-DNA),16.1 µM
"N.N.[Cl][Pt][Cl] [Cisplatin, reference compound]",IC50,A549 cancer cells; [7],8.9 ± 2 µM
same,"cells in early apoptosis (AN+; IP−), lower right quadrant",A549 cells [3],5.3%
same,"cells in late apoptosis (AN+; IP+), upper right quadrant",A549 cells [3],26.1%
same,"cells in necrosis (AN–; IP+), upper left quadrant",A549 cells [3],6.6%
same,Hemolytic activity,[4]; 1 μM,0%
same,Hemolytic activity,[4]; 5 μM,0%
same,Hemolytic activity,[4]; 10 μM,0%
same,Hemolytic activity,[4]; 25 μM,0.2%
"N#CC(C#N)=NNc1cccc(Cl)c1 [CCCP, carbonyl cyanide m-chlorophenyl hydrazone, reference compound]","cells with red fluorescence (JC-1 aggregates), upper right quadrant",A549 cells [5],21.9%
[(η^5-C5Me5)Ir(bhq)Cl] [complex 10],IC50,A549 cancer cells; [6],5.6 ± 0.4 µM
same,IC50,A549 cancer cells; [7],10 ± 0.3 µM
same,"PI blue light (IC50,dark/IC50,light)","A549 cancer cells; blue light 460 nm, 24.1 J cm^–2",1.8
[Ru+2].c1ccc(-c2ccnc3c2ccc2c(-c4ccccc4)ccnc23)cc1.c1ccc(-c2ccnc3c2ccc2c(-c4ccccc4)ccnc23)cc1.c1cnc2c(c1)ccc1cccnc12 [[Ru(DIP)2(phen)]2+],PI,CT26,1111
same,PI/Dose,CT26,123.4
